Series [1] is described as follows: Solubility by visual inspection. The format is physicochemical. To be noted: for Solubility on dilution of DMSO solution in pH 7.4 phosphate buffer: diluted up to 10,000 times in pH 7.4 phosphate buffer; for solubility: organic solvent or mixture, DMSO, tested up to 30 mM, read-out: Solubility in DMSO (clear and transparent solutions). The protocol: Solubility and stability testing was conducted for three of the derivatives, evaluated as potential in vivo testing candidates, namely AAD1, AAD2 and AAD8. Solubility was evaluated using a visual inspection method, checking the clarity and opalescence of different concentrations (up to 30 mM) of dimethyl sulfoxide (DMSO) solutions of the mentioned AADs, as well as of their further dilutions with the pH 7.4 phosphate buffer (100-, 1000- and 10,000-times dilutions).

A short description of series [2]: Solution stability by HPLC. Particulars: pH 2 (0.01 M HCl) 2 h; pH 5.5 and pH 7.4 phosphate buffer 4 h. The format is physicochemical. The method, then: Solubility and stability testing was conducted for three of the derivatives, evaluated as potential in vivo testing candidates, namely AAD1, AAD2 and AAD8. The stability of the synthesized AADs was evaluated in mediums with three different pH values: 2 (0.01 M HCl), 5.5 (phosphate buffer) and 7.4 (phosphate buffer). Stability was tested by employing a HPLC method, using an Agilent 1200 chromatograph (Agilent Technologies, Palo Alto, CA, USA) and Zorbax Extend C18 column (Agilent Technologies, Palo Alto, CA, USA). The mobile phase consisted of acetonitrile and water (pH was adjusted to 3.2 using phosphoric acid) at a ratio of 30:70 (v/v) for all three AADs. Column temperature was adjusted to 25 °C, while the flow rate was […]. UV detection was performed at 220, 230, 254, 265 and 280 nm. In short, samples (solutions of the investigated AADs in the appropriate mediums) were injected twice into the HPLC column: the first time right after the preparation of the solutions, and the second time after the stability testing interval—two hours for the pH 2 solution and four hours for the pH 5.5 and 7.4 solutions. At the end of the incubation intervals, the decrease in peak areas and occurrence of additional peaks on chromatograms were analyzed in comparison with the chromatograms obtained right after the preparation of the solutions.

A short description of series [3]: MTT cytotoxicity assay on non-infected Vero cells. Format: cell-based. To be noted: Chlorocebus sabaeus (African green monkey), non-infected Vero cells (ATCC CCL-81), 72 h incubation. An excerpt: The Vero cell line (ATCC® CCL-81), derived from the kidney tissue of the Green African monkey (Chlorocebus sabaeus), was utilized as a model of non-infected cells in the cytotoxicity assay. The cells were thawed from stocks maintained in liquid nitrogen at the National Reference Laboratory (NRL) for Toxoplasmosis and cultured in D10 medium—Advanced Dulbecco’s Modified Eagle Medium (DMEM) (Thermo Fisher Scientific, Waltham, MA, USA), supplemented with 10% bovine calf serum (BCS) (Sigma-Aldrich, St. Louis, MO, USA), 1% HEPES buffer (Thermo Fisher Scientific, Waltham, MA, USA), and 1% penicillin-streptomycin (Pen/Strep) solution (Thermo Fisher Scientific, Waltham, MA, USA) in T25 and T75 flasks. Depending on confluency, cells were subcultured 1–2 times per week.
The MTT colorimetric assay, a widely used method for assessing the cytotoxicity of newly synthesized compounds, was used to evaluate the toxic effect of AADs on non-infected cells. This assay is based on the ability of metabolically active, viable cells to reduce the yellow 3-(4,5-dimethylthiazol-2-yl)-2,5-diphenyltetrazolium bromide (MTT) reagent to purple formazan. The number of viable cells in the well is directly proportional to the intensity of the resulting color. The MTT assay was performed according to the manufacturer’s instructions using the In Vitro Toxicology Assay Kit (MTT-based, Sigma-Aldrich, St. Louis, MO, USA), with a protocol specifically modified to accommodate the cell line and derivatives analyzed in this study.
In brief, Vero cells were seeded in a 96-well plate, at a density of 25,000 cells per well and incubated for 24 h at 37 °C in a 5% CO2 atmosphere. After the incubation period, the supernatant was removed from each well and replaced with serial dilutions of the analyzed derivatives, as well as with the combination of PYR+SDZ (Sigma-Aldrich, St. Louis, MO, USA) as a positive control. All compounds were investigated in five different concentrations, ranging from 100 μM to 6.25 μM, using a two-fold serial dilution method. The positive control was tested in the range of 0.4 μM + 100 μM to 0.025 μM + 6.25 μM (ratio of PYR+SDZ adjusted according to the literature). In negative control wells, containing only non-infected Vero cells, the discarded supernatant was replaced by a new amount of D10 medium. Blank wells, used to account for any background signal from the colored culture medium, contained only D10 medium. All samples, including controls and blanks, were analyzed in triplicates.
Samples containing Vero cells with added AADs or the positive control were incubated for 72 h. After incubation, the supernatant was discarded, and a new amount of D10 medium (100 μL) was added to each well. The MTT reagent (10 μL, […]) was subsequently added to each well, and the plates were incubated for an additional four hours. After the incubation period, the supernatant was discarded, and the resulting formazan crystals were dissolved using the solubilizing solution from the In Vitro Toxicology Assay Kit. Absorbance was measured at 540 nm using an ELISA plate reader (Multiskan EX, Thermofisher Scientific, Waltham, MA, USA). Data analysis was conducted, and CC50 values (cytotoxic concentration used to lyse/inhibit average of 50% of cells) were obtained using nonlinear regression in GraphPad Prism 10.4.1 (GraphPad Software Inc., La Jolla, CA, USA).
A general note: Formazan colour is commonly taken as a measure of viable cells.

Series [4] concerns T. gondii RH strain tachyzoites. Kind of series: Anti-T. gondii activity screening (viable tachyzoite count, Trypan blue). Format: cell-based, Toxoplasma gondii. Particulars: 25 µM, 24 h, compared to untreated control. The method, then: T. gondii RH strain tachyzoites were obtained from the NRL for Toxoplasmosis, Institute for Medical Research, Belgrade, Serbia, where the RH strain is regularly maintained via passages using female Swiss-Webster mice twice a week (Ethical license no. 323-07-02445/2014-05/1).
The anti-T. gondii activity of the AADs was evaluated according to previously described methodology, slightly modified by using the DMEM culture medium supplemented with 10% bovine calf serum (BCS) without antibiotics (referred to as modified D10 medium). RH strain T. gondii tachyzoites were harvested from the intraperitoneal exudate of infected mice during routine passage of the strain at the NRL for toxoplasmosis. The sample (intraperitoneal lavage fluid of RH strain-infected mice) was then washed three times using Dulbecco Phosphate Buffered Saline (DPBS) (Thermofisher Scientific, Waltham, MA, USA) and centrifuged at 2.500 rpm for five minutes to obtain a pellet consisting of RH strain tachyzoites only. The pellet was then resuspended, and the parasite count was determined by Trypan blue vital staining, using a Bürker-Türk counting chamber. Tachyzoites were resuspended in an appropriate volume of DMEM culture medium to achieve the required tachyzoite concentration. A suspension of tachyzoites (2 × 10^6 tachyzoites/well, in 100 μL volume) was then seeded into a 96-well microplate and exposed to a 25 µM concentration of 10 AADs, as well as a combination of PYR+SDZ, for 24 h. All samples, including the untreated control consisting of RH strain tachyzoites in a modified D10 culture medium, were tested in triplicates.
After 24 h, 20 µL of sample was collected from each well, mixed with an equal volume of Trypan blue stain, and the number of viable tachyzoites was determined using a Bürker-Türk counting chamber. The reduction in the number of viable tachyzoites compared to untreated control was calculated using the following formula:(1) Reduction %=100%−(median value of number of viable tachyzoites in test wells/median value of number of viable tachyzoites in control wells×100%)

Several values for one entry are separate records, joined by “and”; a condition that tells them apart may be missing. Equal values may be shown once.

On to `CCOC(=O)CCCCCNc1c2ccccc2nc2ccccc12` [AAD1], for which, in series [1], the “Solubility on dilution of DMSO solution in pH 7.4 phosphate buffer” value (“Solubility on dilution of DMSO solution” below) is “maintaining solubility” and the solubility (usually the dissolved amount per volume that the medium holds) is no less than 30 mM. Further, in series [2], the “Solution stability (HPLC peak area, additional peaks)” value (“Solution stability” for short) is given as “stable”. Also, the CC50 (commonly the concentration that lowers cell viability or growth by half) at 72 h in series [3] is 41.7 µM. For the same compound, in series [4], the “Viability Reduction of T. gondii Tachyzoites” value (“Viability Reduction” for short) is on record as 24.7%.

For the compound `Cn1cc(CC(Nc2c3ccccc3nc3ccccc23)C(=O)O)c2ccccc21` (stereo not shown) [AAD2], in series [1], the “Solubility on dilution of DMSO solution” value is “maintaining solubility” and the solubility is no less than 30 mM. The “Solution stability” value in series [2] was “stable”. Besides, the 50% cytotoxic concentration (CC50) at 72 h in series [3] worked out at 60.2 µM.

As to `COC(=O)CCCCCCCNc1c2ccccc2nc2ccccc12` [AAD3], the CC50 at 72 h in series [3] worked out at 88.4 µM. In series [4], the “Viability Reduction” value came out at 15.2%.

As to `COC(=O)C(Cc1c[nH]cn1)Nc1c2ccccc2nc2ccccc12` (stereo not shown) [AAD4], the CC50 at 72 h in series [3] worked out at 134 µM. In addition, the “Viability Reduction” value in series [4] is 4.5%.

`O=C(O)CCCCCCCNc1c2ccccc2nc2ccccc12` [AAD6, 8-(acridin-9-ylamino) octanoic acid]: the CC50 at 72 h in series [3] was 154 µM. Moreover, the “Viability Reduction” value in series [4] amounted to 22.0%.

With `O=C(O)CCCCCNc1c2ccccc2nc2ccccc12` [AAD7, 6-(acridin-9-ylamino) hexanoic acid], the CC50 at 72 h in series [3] was 93 µM. The “Viability Reduction” value in series [4] is 20.9% and 20.5%.

Consider `O=C(O)CCCNc1c2ccccc2nc2ccccc12` [AAD8, 4-(acridin-9-ylamino) butanoic acid], for which, in series [1], the “Solubility on dilution of DMSO solution” value is “maintaining solubility” and the solubility was no less than 30 mM. Besides, the “Solution stability” value in series [2] was “stable”. Moreover, in series [3], the CC50 at 72 h was 102 µM. Also, the “Viability Reduction” value in series [4] was 33.3%.

As to `O=C(O)[C@H](Cc1ccccc1)Nc1c2ccccc2nc2ccccc12` [AAD9, (S) 2-(acridin-9-ylamino)-3-phenylpropanoic acid], the CC50 at 72 h in series [3] is 50.2 µM.

With `O=C(O)CCNc1c2ccccc2nc2ccccc12` [AAD10, 3-(acridin-9-ylamino) propanoic acid], the half-maximal cytotoxic concentration (CC50) at 72 h in series [3] was 177 µM. In addition, in series [4], the “Viability Reduction” value was found to be 21.9%.

The values above are taken from publication PMC11944910, “N-(9-Acridinyl) Amino Acid Derivatives: Synthesis and In Vitro Evaluation of Anti-Toxoplasma gondii Activity” (Pharmaceutics, 2025).
